Data as given in ChEMBL document CHEMBL2412998, “Search for a novel SIRT1 activator: structural modification of SRT1720 and biological evaluation” (Bioorg Med Chem Lett, 2013).
Active and inactive are the calls of the source. The rule behind the calls is not given here.

Tests used:
[1] = target: T1, NAD-dependent protein deacetylase sirtuin-1 (Homo sapiens) (UniProt Q96EB6); experiment: Activation of human recombinant SIRT1 at 10 uM preincubated for 60 mins prior to substrate addition measured after 60 mins by fluorescence assay
T1 sequence (whole entry): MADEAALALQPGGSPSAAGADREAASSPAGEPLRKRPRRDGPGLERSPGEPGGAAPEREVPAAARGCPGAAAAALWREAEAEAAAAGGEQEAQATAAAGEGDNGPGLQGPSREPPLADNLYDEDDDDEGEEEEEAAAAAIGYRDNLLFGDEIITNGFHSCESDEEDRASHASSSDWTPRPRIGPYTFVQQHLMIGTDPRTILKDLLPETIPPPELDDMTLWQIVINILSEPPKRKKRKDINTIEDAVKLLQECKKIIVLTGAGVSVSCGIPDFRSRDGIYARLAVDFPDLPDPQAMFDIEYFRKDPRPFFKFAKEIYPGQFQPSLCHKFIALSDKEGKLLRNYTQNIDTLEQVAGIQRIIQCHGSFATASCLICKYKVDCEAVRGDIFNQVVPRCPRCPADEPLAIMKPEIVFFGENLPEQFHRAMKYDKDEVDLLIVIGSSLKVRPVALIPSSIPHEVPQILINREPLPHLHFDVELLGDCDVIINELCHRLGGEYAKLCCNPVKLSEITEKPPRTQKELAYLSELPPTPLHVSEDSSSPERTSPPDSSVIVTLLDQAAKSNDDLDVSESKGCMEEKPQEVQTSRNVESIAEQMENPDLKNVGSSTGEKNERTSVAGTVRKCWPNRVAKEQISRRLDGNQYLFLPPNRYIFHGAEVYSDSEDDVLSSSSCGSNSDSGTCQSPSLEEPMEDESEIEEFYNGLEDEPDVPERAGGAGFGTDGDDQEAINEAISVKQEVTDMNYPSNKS

[2] = target: T1, NAD-dependent protein deacetylase sirtuin-1 (Homo sapiens); experiment: Activation of human recombinant SIRT1 at 100 uM preincubated for 60 mins prior to substrate addition measured after 60 mins by fluorescence assay

| Activity [1] | Activity [2] | Structure (SMILES) |
| --- | --- | --- |
| 140% | Active | O=C(Nc1cccc(-c2cn3c(CN4CCNCC4)csc3n2)c1)c1ccc2ccccc2n1 |
| inactive |  | COCCOCOCc1csc2nc(-c3ccccc3NC(=O)c3cnc4ccccc4n3)cn12 |
| 140% | Active | O=C(Nc1cccc(-c2cn3c(CN4CCNCC4)csc3n2)c1)c1cnc2ccccc2c1 |
| inactive |  | COCc1csc2nc(-c3ccccc3NC(=O)c3cnc4ccccc4n3)cn12 |
| inactive |  | O=C(Nc1ccccc1-c1cn2c(CN3CCNCC3)csc2n1)c1ccnc2ccccc12 |
| inactive |  | O=C(Nc1cccc(-c2cn3c(CN4CCNCC4)csc3n2)c1)c1ccnc2ccccc12 |
| inactive |  | O=C(Nc1ccc(-c2cn3c(CN4CCNCC4)csc3n2)cc1)c1cnc2ccccc2n1 |
| inactive |  | O=C(Nc1cccc(-c2cn3c(CN4CCCC4)csc3n2)c1)c1cnc2ccccc2n1 |
| inactive |  | O=C(Nc1cccc(-c2cn3c(CN4CCOCC4)csc3n2)c1)c1cnc2ccccc2n1 |
| Active | Active | O=C(Nc1cccc(-c2cn3c(CN4CCNCC4)csc3n2)c1)c1cnc2ccccc2n1 |
| inactive |  | O=C(Nc1cccc(-c2cn3c(CN4CCNCC4)csc3n2)c1)c1cc2ccccc2[nH]1 |
| 160% | Active | O=C(Nc1ccccc1-c1cn2c(CN3CCNCC3)csc2n1)c1cnc2ccccc2n1 |
| inactive |  | O=C(Nc1cccc(-c2cn3c(CN4CCCCC4)csc3n2)c1)c1cnc2ccccc2n1 |
| inactive |  | CNCc1csc2nc(-c3ccccc3NC(=O)c3cnc4ccccc4n3)cn12 |
| inactive |  | O=C(Nc1ccccc1-c1cn2c(CN3CCNCC3)csc2n1)c1cccc2ccccc12 |
| inactive |  | O=C(Nc1cccc(-c2cn3c(CN4CCNCC4)csc3n2)c1)c1cnccn1 |
| inactive |  | O=C(Nc1ccccc1-c1cn2c(CN3CCNCC3)csc2n1)c1ccc2ccccc2c1 |
